Measurements published in ChEMBL document CHEMBL4130538, “Discovery of novel anti-angiogenesis agents. Part 7: Multitarget inhibitors of VEGFR-2, TIE-2 and EphB4” (Eur J Med Chem, 2017).

Experiments:
Ephrin type-B receptor 4 = target: T1, Ephrin type-B receptor 4 (Homo sapiens, UniProt P54760); assay: Inhibition of EphB4 (unknown origin) after 4 hrs by ADP-Glo luminescence assay
T1 sequence (P54760 whole entry): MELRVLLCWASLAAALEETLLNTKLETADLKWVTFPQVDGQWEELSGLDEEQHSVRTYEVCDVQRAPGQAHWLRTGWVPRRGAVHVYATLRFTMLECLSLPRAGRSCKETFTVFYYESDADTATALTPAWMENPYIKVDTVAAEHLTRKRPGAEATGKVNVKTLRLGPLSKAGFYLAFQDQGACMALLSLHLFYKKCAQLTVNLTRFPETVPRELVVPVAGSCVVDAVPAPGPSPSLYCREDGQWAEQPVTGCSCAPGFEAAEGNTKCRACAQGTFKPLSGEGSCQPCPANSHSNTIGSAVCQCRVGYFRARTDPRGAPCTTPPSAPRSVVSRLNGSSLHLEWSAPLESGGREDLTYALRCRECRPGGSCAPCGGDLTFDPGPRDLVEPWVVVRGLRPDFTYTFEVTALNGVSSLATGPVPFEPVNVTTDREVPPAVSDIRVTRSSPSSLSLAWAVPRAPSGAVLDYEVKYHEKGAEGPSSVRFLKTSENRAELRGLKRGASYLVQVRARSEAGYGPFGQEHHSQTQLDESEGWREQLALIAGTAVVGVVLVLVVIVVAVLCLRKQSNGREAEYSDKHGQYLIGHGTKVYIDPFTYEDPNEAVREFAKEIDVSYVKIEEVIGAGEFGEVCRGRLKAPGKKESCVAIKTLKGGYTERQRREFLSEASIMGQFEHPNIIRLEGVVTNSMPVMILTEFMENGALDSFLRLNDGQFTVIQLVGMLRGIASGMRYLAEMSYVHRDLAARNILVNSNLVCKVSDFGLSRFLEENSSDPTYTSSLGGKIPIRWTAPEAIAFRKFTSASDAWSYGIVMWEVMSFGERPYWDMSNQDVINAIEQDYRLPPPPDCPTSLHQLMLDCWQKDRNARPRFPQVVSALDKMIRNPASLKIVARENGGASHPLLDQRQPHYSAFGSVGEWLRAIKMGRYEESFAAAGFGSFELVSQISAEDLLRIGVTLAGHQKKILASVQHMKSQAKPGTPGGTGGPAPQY

EA.hy 926 = assay: Anti-angiogenic activity in human EAhy926 cells as growth inhibition after 24 hrs by CCK-8 assay; type: cell-based; conditions: EA.hy 926, 24 h
[1] = target: Vascular endothelial growth factor receptor 2 (Homo sapiens, UniProt P35968); assay: Inhibition of VEGFR-2 (unknown origin) after 60 mins by ADP-Glo luminescence assay
Chain of Vascular endothelial growth factor receptor 2 (P35968 whole entry): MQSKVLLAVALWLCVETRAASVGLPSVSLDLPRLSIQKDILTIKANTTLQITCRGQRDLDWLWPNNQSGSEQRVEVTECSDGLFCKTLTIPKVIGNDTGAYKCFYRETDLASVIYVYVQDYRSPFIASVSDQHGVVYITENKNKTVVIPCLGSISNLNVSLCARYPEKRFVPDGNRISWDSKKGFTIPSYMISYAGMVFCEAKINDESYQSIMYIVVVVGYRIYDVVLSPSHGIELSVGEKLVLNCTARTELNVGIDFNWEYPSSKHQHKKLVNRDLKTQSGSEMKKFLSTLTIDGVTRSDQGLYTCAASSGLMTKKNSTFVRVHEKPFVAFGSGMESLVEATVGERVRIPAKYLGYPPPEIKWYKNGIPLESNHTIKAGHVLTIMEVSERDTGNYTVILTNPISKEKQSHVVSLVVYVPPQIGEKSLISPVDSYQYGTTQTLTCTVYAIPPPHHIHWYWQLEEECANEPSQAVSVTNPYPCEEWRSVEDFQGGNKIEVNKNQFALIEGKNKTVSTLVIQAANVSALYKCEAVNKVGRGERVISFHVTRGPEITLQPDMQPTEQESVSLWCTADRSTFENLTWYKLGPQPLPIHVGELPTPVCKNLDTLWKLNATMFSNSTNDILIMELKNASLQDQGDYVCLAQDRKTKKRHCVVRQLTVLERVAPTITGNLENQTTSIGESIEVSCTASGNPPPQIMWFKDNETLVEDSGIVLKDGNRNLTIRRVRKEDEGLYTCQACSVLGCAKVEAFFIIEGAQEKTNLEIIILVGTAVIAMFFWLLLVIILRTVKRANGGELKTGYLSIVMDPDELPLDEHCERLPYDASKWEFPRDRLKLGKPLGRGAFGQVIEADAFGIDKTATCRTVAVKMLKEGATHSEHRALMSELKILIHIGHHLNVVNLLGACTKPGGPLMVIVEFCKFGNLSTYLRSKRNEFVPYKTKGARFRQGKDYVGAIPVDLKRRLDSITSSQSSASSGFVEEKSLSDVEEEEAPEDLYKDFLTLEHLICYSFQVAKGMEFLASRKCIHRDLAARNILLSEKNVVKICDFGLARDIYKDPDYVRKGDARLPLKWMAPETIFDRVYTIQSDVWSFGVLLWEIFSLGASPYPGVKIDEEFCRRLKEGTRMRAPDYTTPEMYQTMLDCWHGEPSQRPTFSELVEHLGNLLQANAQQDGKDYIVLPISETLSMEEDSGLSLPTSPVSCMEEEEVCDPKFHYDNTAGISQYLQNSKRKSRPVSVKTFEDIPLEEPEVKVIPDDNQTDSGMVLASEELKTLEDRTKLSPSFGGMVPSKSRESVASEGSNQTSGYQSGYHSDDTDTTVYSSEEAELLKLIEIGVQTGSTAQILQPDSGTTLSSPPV

Angiopoietin-1 receptor = Angiopoietin-1 receptor (Homo sapiens, UniProt Q02763); assay: Inhibition of TIE-2 (unknown origin) after 4 hrs by ADP-Glo luminescence assay
Chain of Angiopoietin-1 receptor (Q02763 whole entry): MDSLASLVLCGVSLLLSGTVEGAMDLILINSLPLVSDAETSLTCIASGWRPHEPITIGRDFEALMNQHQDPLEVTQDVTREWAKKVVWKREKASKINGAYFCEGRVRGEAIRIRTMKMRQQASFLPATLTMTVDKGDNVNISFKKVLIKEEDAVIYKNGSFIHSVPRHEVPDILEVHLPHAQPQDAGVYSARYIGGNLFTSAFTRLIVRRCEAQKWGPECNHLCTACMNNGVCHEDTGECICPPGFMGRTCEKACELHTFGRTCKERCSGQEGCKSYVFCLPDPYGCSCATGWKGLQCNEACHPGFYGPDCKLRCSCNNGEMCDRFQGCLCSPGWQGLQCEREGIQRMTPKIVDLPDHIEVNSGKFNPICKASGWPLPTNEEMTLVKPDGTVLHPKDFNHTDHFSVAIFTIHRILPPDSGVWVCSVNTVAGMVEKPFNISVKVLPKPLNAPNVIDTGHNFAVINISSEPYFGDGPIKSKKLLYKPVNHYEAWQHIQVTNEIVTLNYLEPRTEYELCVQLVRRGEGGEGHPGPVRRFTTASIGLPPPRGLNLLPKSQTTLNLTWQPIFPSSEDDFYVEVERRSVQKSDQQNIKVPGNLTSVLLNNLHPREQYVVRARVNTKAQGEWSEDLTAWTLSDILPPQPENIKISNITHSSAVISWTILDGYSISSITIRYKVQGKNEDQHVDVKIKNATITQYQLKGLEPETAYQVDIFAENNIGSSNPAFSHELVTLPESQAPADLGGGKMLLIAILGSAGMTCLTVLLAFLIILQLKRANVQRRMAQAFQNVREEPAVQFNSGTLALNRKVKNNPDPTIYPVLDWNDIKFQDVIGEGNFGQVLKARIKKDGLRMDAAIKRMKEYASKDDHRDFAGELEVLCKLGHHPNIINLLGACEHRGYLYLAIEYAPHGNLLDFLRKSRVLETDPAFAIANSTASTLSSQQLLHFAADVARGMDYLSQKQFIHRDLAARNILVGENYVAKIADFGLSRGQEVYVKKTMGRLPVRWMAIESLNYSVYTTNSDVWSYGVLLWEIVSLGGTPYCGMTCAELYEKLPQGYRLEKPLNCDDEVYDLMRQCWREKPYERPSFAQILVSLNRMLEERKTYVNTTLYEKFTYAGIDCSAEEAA

[2] = target: Vascular endothelial growth factor receptor 3 (Homo sapiens, UniProt P35916); assay: Inhibition of VEGFR-3 (unknown origin)
[3] = target: Vascular endothelial growth factor receptor 1 (Homo sapiens, UniProt P17948); assay: Inhibition of VEGFR-1 (unknown origin)
[4] = target: Hepatocyte growth factor receptor (Homo sapiens, UniProt P08581); assay: Inhibition of cMET (unknown origin)
[5] = target: Mast/stem cell growth factor receptor Kit (Homo sapiens, UniProt P10721); assay: Inhibition of cKIT (unknown origin)
[6] = target: Platelet-derived growth factor receptor beta (Homo sapiens, UniProt P09619); assay: Inhibition of PDGFRbeta (unknown origin)
[7] = target: Serine/threonine-protein kinase B-raf (Homo sapiens, UniProt P15056); assay: Inhibition of BRAF (unknown origin)
[8] = target: Epidermal growth factor receptor (Homo sapiens, UniProt P00533); assay: Inhibition of EGFR (unknown origin)
Chain of Epidermal growth factor receptor (P00533 whole entry): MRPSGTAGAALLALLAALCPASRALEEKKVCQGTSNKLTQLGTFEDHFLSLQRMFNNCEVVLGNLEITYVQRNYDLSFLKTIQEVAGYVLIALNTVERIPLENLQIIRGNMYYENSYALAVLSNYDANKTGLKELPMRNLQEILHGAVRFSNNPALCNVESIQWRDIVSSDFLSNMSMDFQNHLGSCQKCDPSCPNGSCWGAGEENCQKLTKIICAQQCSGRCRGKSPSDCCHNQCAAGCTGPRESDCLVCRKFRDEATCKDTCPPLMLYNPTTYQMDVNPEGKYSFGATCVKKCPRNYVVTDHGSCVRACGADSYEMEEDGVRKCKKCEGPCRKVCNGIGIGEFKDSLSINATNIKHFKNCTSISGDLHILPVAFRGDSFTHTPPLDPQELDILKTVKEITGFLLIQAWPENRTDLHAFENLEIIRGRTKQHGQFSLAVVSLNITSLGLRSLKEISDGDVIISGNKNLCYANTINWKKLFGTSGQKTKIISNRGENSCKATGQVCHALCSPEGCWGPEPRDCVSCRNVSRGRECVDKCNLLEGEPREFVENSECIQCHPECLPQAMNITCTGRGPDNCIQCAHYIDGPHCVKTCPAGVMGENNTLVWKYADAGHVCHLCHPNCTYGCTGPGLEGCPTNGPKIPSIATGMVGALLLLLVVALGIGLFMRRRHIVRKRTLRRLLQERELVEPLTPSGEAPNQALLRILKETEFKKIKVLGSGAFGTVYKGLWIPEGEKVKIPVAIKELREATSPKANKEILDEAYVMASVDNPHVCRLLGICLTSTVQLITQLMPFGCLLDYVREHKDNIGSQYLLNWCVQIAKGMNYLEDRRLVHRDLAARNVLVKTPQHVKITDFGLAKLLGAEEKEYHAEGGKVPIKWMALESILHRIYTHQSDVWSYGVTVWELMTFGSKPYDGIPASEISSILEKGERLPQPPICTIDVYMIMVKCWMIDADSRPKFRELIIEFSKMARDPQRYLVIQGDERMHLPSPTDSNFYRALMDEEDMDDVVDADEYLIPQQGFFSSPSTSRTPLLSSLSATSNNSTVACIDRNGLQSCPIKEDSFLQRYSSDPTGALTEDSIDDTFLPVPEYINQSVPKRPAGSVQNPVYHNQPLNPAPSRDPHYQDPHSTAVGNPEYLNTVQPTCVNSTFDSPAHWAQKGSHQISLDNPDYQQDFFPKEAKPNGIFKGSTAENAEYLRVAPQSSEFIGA

[9] = target: Fibroblast growth factor receptor 1 (Homo sapiens, UniProt P11362); assay: Inhibition of FGFR-1 (unknown origin)
Chain of Fibroblast growth factor receptor 1 (P11362 whole entry): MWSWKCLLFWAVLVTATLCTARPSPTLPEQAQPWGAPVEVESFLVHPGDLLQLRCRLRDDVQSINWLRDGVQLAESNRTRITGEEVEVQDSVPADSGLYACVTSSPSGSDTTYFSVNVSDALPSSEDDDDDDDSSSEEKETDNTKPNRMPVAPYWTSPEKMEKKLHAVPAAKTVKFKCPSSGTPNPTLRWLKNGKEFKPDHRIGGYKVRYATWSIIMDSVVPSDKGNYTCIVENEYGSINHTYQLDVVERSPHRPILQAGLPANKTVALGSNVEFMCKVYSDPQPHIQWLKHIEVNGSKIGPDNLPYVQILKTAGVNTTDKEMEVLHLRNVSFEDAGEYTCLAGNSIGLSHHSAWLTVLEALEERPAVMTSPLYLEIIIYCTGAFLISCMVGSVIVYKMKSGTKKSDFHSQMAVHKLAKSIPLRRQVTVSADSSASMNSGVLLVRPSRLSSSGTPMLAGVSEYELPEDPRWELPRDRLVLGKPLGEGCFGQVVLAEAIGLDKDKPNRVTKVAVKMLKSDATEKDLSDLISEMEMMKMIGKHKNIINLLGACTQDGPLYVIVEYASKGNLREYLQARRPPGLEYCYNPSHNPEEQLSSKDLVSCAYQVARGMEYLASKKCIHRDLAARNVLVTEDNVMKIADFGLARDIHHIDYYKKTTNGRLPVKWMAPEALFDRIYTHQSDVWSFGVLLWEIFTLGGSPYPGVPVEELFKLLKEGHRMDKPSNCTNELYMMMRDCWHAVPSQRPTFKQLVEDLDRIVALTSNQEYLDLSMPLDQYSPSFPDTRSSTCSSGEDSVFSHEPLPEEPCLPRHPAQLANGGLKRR

[10] = target: Insulin-like growth factor 1 receptor (Homo sapiens, UniProt P08069); assay: Inhibition of IGF1-R (unknown origin)
[11] = target: Fibroblast growth factor receptor 4 (Homo sapiens, UniProt P22455); assay: Inhibition of FGFR-4 (unknown origin)

IC50 (Angiopoietin-1 receptor)	Structure (SMILES)	also measured
> 500 nM	Nc1ncc2ccc(-c3ccc(NC(=O)C4(C(=O)Nc5ccc(OCCCN6CCOCC6)c(F)c5)CC4)cc3)cc2n1	IC50 (Ephrin type-B receptor 4): > 500 nM; IC50 (EA.hy 926): 32.2 µM; IC50 [1]: > 500 nM
432 nM	Nc1ncc2ccc(-c3ccc(NC(=O)C4(C(=O)Nc5ccc6c(c5)OCO6)CC4)cc3)cc2n1	IC50 (Ephrin type-B receptor 4): > 500 nM; IC50 (EA.hy 926): 29.2 µM; IC50 [1]: > 500 nM
24.8 nM	O=C(Nc1cccc(Cl)c1)Nc1cccc(-c2ccc3c(=O)[nH]cnc3c2)c1	
14.5 nM	Nc1ncc2ccc(-c3ccc(NC(=O)C4(C(=O)Nc5ccc(F)c(F)c5)CC4)cc3)cc2n1	
> 500 nM	Nc1ncc2ccc(-c3ccc(NC(=O)C4(C(=O)Nc5ccc(Cl)c(Cl)c5)CC4)cc3)cc2n1	
12.8 nM	O=C(Nc1cccc(-c2ccc3c(=O)[nH]cnc3c2)c1)Nc1cccc(C(F)(F)F)c1	
> 500 nM	C=CC(=O)Nc1ccc(-c2ccc(NC(=O)Nc3c(C)cccc3C)cc2)cn1	
> 500 nM	Nc1ncc2ccc(-c3ccc(NC(=O)C4(C(=O)Nc5ccc(OC(F)(F)F)cc5Br)CC4)cc3)cc2n1	
7.97 nM	C=CC(=O)Nc1ccc(-c2ccc(NC(=O)Nc3ccccc3Cl)cc2)cn1	
16.6 nM	O=C(Nc1cccc(-c2ccc3c(=O)[nH]cnc3c2)c1)Nc1ccc(F)c(F)c1	
> 500 nM	O=C(Nc1cccc(-c2ccc3c(=O)[nH]cnc3c2)c1)Nc1ccc(Cl)c(C(F)(F)F)c1	
14.2 nM	C=CC(=O)Nc1ccc(-c2ccc(NC(=O)Nc3ccc(C)c(Cl)c3)cc2)cn1	
5.63 nM	C=CC(=O)Nc1ccc(-c2ccc(NC(=O)Nc3cccc(Cl)c3)cc2)cn1	IC50 [2]: 45 nM; IC50 [3]: 25 nM; IC50 [4]: 57.8 nM; IC50 [5]: 68.9 nM; IC50 [6]: 180 nM; IC50 [7]: 32 nM; IC50 [8]: 8.7 nM; IC50 [9]: 200 nM; IC50 [10]: 40 nM; IC50 [11]: 1080 nM
9.77 nM	C=CC(=O)Nc1ccc(-c2ccc(NC(=O)Nc3ccc(Cl)c(C(F)(F)F)c3)cc2)cn1	
> 500 nM	Nc1ncc2ccc(-c3ccc(NC(=O)C4(C(=O)Nc5ccc(Br)cc5OC(F)(F)F)CC4)cc3)cc2n1	
105 nM	C=CC(=O)Nc1ccc(-c2ccc(NC(=O)Nc3ccc(F)cc3)cc2)cn1	
> 500 nM	Nc1ncc2ccc(-c3ccc(NC(=O)C4(C(=O)Nc5cc(Br)ccc5OC(F)(F)F)CC4)cc3)cc2n1	
9.19 nM	C=CC(=O)Nc1ccc(-c2ccc(NC(=O)Nc3cccc(C(C)C)c3)cc2)cn1	
21.3 nM	C=CC(=O)Nc1ccc(-c2ccc(NC(=O)Nc3ccc(C(C)(C)C)cc3)cc2)cn1	
59.9 nM	C=CC(=O)Nc1ccc(-c2ccc(NC(=O)Nc3ccc(OC(F)(F)F)cc3)cc2)cn1	
3.59 nM	C=CC(=O)Nc1ccc(-c2ccc(NC(=O)Nc3cccc(C(F)(F)F)c3)cc2)cn1	
14.7 nM	Nc1ncc2ccc(-c3ccc(NC(=O)C4(C(=O)Nc5cc(OC(F)(F)F)ccc5Br)CC4)cc3)cc2n1	
65.3 nM	Nc1ncc2ccc(-c3ccc(NC(=O)C4(C(=O)Nc5cc(Br)cc(C(F)(F)F)c5)CC4)cc3)cc2n1	
54.9 nM	Nc1ncc2ccc(-c3ccc(NC(=O)C4(C(=O)Nc5ccc(Cl)cc5Cl)CC4)cc3)cc2n1	
245 nM	O=C(Nc1cccc(-c2ccc3c(=O)[nH]cnc3c2)c1)Nc1cc(C(F)(F)F)cc(C(F)(F)F)c1	
90.9 nM	C=CC(=O)Nc1ccc(-c2ccc(NC(=O)Nc3cccc(F)c3)cc2)cn1	
21.2 nM	Nc1ncc2ccc(-c3ccc(NC(=O)C4(C(=O)Nc5cc(C(F)(F)F)cc(C(F)(F)F)c5)CC4)cc3)cc2n1	
